Where a SMILES comes first, the peptide text is derived from it. Bridges are numbered along the chain shown (N, C = ends). [ ]: non-standard residue; d: D form. R8 = C=CCCCCCC[C@@](C)(N)C(=O)O; Cha = N[C@@H](CC1CCCCC1)C(=O)O; Chg = N[C@H](C(=O)O)C1CCCCC1; hLeu = CC(C)CC[C@H](N)C(=O)O; S5 = C=CCCC[C@](C)(N)C(=O)O; Nle = CCCC[C@H](N)C(=O)O; Ac3c = NC1(C(=O)O)CC1; Aib = CC(C)(N)C(=O)O Some results are limits rather than exact numbers.

Among the data in patent US8927500B2, “Peptidomimetic macrocycles” (Aileron Therapeutics, Inc., priority 2012, dated 2015) are Ki and IC50 values, retold here.

One experiment addresses MDM2 (Homo sapiens, UniProt Q00987). Put plainly: Competitive fluorescence polarization assay for MDM2. The class given is binding. As to conditions: competitive FP assay, MDM2; for Ki: read-out: Ki (MDM2); for IC50: read-out: IC50 (MDM2).
The target in a further experiment is T1, MDMX (Homo sapiens, UniProt O15151).
T1 sequence (O15151 1-125): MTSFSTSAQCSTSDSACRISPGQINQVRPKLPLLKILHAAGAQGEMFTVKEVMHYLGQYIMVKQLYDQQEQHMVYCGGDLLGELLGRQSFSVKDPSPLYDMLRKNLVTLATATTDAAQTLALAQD
Put plainly: Competitive fluorescence polarization assay for MDMX. The format is binding. As to conditions: competitive FP assay; for Ki: read-out: Ki (MDMX); for IC50: read-out: IC50 (MDMX).

Chain of MDM2 (Q00987 1-125): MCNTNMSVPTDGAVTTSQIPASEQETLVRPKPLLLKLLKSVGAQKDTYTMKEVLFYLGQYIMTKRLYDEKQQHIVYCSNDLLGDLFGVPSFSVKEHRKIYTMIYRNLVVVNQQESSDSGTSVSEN

With `CC(=O)N[C@@H](CC(C)C)C(=O)N[C@H](C(=O)N[C@@H](Cc1ccccc1)C(=O)N[C@]1(C)CCCCCCC=CCCC[C@@](C)(C(=O)N[C@@H](CO)C(=O)N[C@@H](C)C(=O)N[C@@H](C)C(N)=O)NC(=O)[C@H](CC2CCC2)NC(=O)[C@H](CCC(N)=O)NC(=O)[C@H](C)NC(=O)[C@H](Cc2c[nH]c3ccccc23)NC(=O)[C@H](Cc2ccc(O)cc2)NC(=O)[C@H](Cc2c[nH]cn2)NC1=O)[C@@H](C)O` (single isomer, unassigned) [compound 712], the inhibition constant (Ki) at MDM2 and on MDMX was below 10 nM throughout.
As to `CC(=O)N[C@@H](CC(C)C)C(=O)N[C@H](C(=O)N[C@@H](Cc1ccccc1)C(=O)N[C@]1(C)CCCCCCC=CCCC[C@@](C)(C(=O)N[C@@H](CO)C(=O)N[C@@H](C)C(=O)N[C@@H](C)C(N)=O)NC(=O)[C@H](CC2CCC2)NC(=O)[C@H](CCC(N)=O)NC(=O)[C@H](C)NC(=O)[C@H](Cc2c[nH]c3ccccc23)NC(=O)[C@H](Cc2ccc(O)cc2)NC(=O)[C@H](CO)NC1=O)[C@@H](C)O` (single isomer, unassigned) [compound 713], the Ki on MDM2 and on MDMX was below 10 nM in each case.
In the case of `CC(=O)N[C@@H](CC(C)C)C(=O)N[C@H](C(=O)N[C@@H](Cc1ccccc1)C(=O)N[C@]1(C)CCCCCCC=CCCC[C@@](C)(C(=O)N[C@@H](C)C(=O)N[C@@H](C)C(=O)N[C@@H](C)C(N)=O)NC(=O)[C@H](CC2CCC2)NC(=O)[C@H](CCC(N)=O)NC(=O)[C@H](C)NC(=O)[C@H](Cc2c[nH]c3ccccc23)NC(=O)[C@H](Cc2ccc(O)cc2)NC(=O)[C@H](CCC(=O)O)NC1=O)[C@@H](C)O` (single isomer, unassigned) [compound 716], the Ki at MDM2 and on MDMX was below 10 nM each time.
For the compound `CSCC[C@H](NC(=O)[C@H](C)NC(=O)[C@H](CO)NC(=O)[C@]1(C)CCCC=CCCCCCC[C@@](C)(NC(=O)[C@H](Cc2ccccc2)NC(=O)[C@@H](NC(=O)[C@H](CC(C)C)NC(C)=O)[C@@H](C)O)C(=O)N[C@@H](C)C(=O)N[C@@H](Cc2ccc(O)cc2)C(=O)N[C@@H](Cc2c[nH]c3ccccc23)C(=O)N[C@@H](C)C(=O)N[C@@H](CCC(N)=O)C(=O)N[C@@H](CC(C)C)C(=O)N1)C(N)=O` [compound 5] (Ac-LTF[R8]AYWAQL[S5]SAM-NH2; staple 4-11), on MDM2, the IC50 lay in the range of 10 to 100 nM and the Ki was below 10 nM. In addition, at MDMX, the IC50 was 100 to 1000 nM and the Ki is 10 to 100 nM.
For `CCCC[C@H](NC(=O)[C@H](C)NC(=O)[C@H](C)NC(=O)[C@]1(C)CCCC=CCCCCCC[C@@](C)(NC(=O)[C@H](Cc2ccccc2)NC(C)=O)C(=O)N[C@@H](C)C(=O)N[C@@H](Cc2ccc(O)cc2)C(=O)N[C@@H](Cc2c[nH]c3ccccc23)C(=O)N[C@@H](CCC(=O)O)C(=O)NC2(CC2)C(=O)N[C@@H](CC(C)C)C(=O)N1)C(N)=O` [compound 14] (Ac-F[R8]AYWE[Ac3c]L[S5]AA[Nle]-NH2; staple 2-9), the IC50 at MDM2 and on MDMX was 10 to 100 nM in each case. Moreover, the Ki at MDM2 and at MDMX was below 10 nM throughout.
Take `CSCC[C@H](NC(=O)[C@H](C)NC(=O)[C@H](C)NC(=O)[C@]1(C)CCCC=CCCCCCC[C@@](C)(NC(=O)[C@H](Cc2ccccc2)NC(C)=O)C(=O)N[C@@H](C)C(=O)N[C@@H](Cc2ccc(O)cc2)C(=O)N[C@@H](Cc2c[nH]c3ccccc23)C(=O)N[C@@H](CCC(=O)O)C(=O)NC2(CC2)C(=O)N[C@@H](CC(C)C)C(=O)N1)C(N)=O` [compound 16] (Ac-F[R8]AYWE[Ac3c]L[S5]AAM-NH2; staple 2-9): the IC50 on MDM2 and on MDMX was 10 to 100 nM in each case. Further, the Ki is below 10 nM at MDM2 and 10 to 100 nM at MDMX.
With `CC(=O)N[C@@H](Cc1ccccc1)C(=O)N[C@]1(C)CCCCCCC=CCCC[C@@](C)(C(=O)N[C@@H](C)C(=O)N[C@@H](C)C(=O)N[C@@H](CCC(C)C)C(N)=O)NC(=O)[C@H](CC(C)C)NC(=O)C2(CC2)NC(=O)[C@H](CCC(=O)O)NC(=O)[C@H](Cc2c[nH]c3ccccc23)NC(=O)[C@H](Cc2ccc(O)cc2)NC(=O)[C@H](C)NC1=O` [compound 17] (Ac-F[R8]AYWE[Ac3c]L[S5]AA[hLeu]-NH2; staple 2-9), the IC50 at MDM2 and at MDMX was 10 to 100 nM in each case. In addition, the Ki at MDM2 was below 10 nM; on MDMX it was 10 to 100 nM.
On to `CC(=O)N[C@@H](Cc1ccccc1)C(=O)N[C@]1(C)CCCCCCC=CCCC[C@@](C)(C(=O)N[C@@H](C)C(=O)N[C@@H](C)C(=O)N[C@H](C(N)=O)C2CCCCC2)NC(=O)[C@H](CC(C)C)NC(=O)C2(CC2)NC(=O)[C@H](CCC(=O)O)NC(=O)[C@H](Cc2c[nH]c3ccccc23)NC(=O)[C@H](Cc2ccc(O)cc2)NC(=O)[C@H](C)NC1=O` [compound 20] (Ac-F[R8]AYWE[Ac3c]L[S5]AA[Chg]-NH2; staple 2-9), for which the IC50 at MDM2 and on MDMX was 100 to 1000 nM in each case. For the same compound, the Ki on MDM2 and at MDMX was 10 to 100 nM in each case.
On to `CC(=O)N[C@@H](Cc1ccccc1)C(=O)N[C@]1(C)CCCCCCC=CCCC[C@@](C)(C(=O)N[C@@H](C)C(=O)N[C@@H](C)C(=O)N[C@@H](CC2CCCCC2)C(N)=O)NC(=O)[C@H](CC(C)C)NC(=O)C2(CC2)NC(=O)[C@H](CCC(=O)O)NC(=O)[C@H](Cc2c[nH]c3ccccc23)NC(=O)[C@H](Cc2ccc(O)cc2)NC(=O)[C@H](C)NC1=O` [compound 21] (Ac-F[R8]AYWE[Ac3c]L[S5]AA[Cha]-NH2; staple 2-9), for which, on MDM2, the 50% inhibitory concentration (IC50) fell in the range of 100 to 1000 nM and the Ki lay in the range of 10 to 100 nM. Further, at MDMX, the half-maximal inhibitory concentration (IC50) is 10 to 100 nM and the Ki fell in the range of 10 to 100 nM.
`CC(=O)N[C@@H](CC(=O)O)C(=O)N[C@@H](CC(C)C)C(=O)N[C@H](C(=O)N[C@@H](Cc1ccccc1)C(=O)N[C@]1(C)CCCCCCC=CCCC[C@@](C)(C(=O)N[C@@H](CCCNC(=N)N)C(=O)N[C@@H](CCCNC(=N)N)C(=O)N[C@@H](CC(C)C)C(=O)N[C@H](C(N)=O)C(C)C)NC(=O)[C@H](CC(C)C)NC(=O)[C@H](CCC(N)=O)NC(=O)[C@H](Cc2c[nH]cn2)NC(=O)[C@H](Cc2c[nH]c3ccccc23)NC(=O)[C@H](Cc2c[nH]cn2)NC(=O)[C@H](Cc2c[nH]cn2)NC1=O)[C@@H](C)O` [compound 28] (Ac-DLTF[R8]HHWHQL[S5]RRLV-NH2; staple 5-12): the IC50 at MDM2 and on MDMX was 10 to 100 nM each time. In addition, the Ki on MDM2 is below 10 nM; at MDMX, 10 to 100 nM.
On to `CC(=O)N[C@@H](Cc1ccccc1)C(=O)N[C@]1(C)CCCCCCC=CCCC[C@@](C)(C(=O)N[C@@H](CCCNC(=N)N)C(=O)N[C@@H](CCCNC(=N)N)C(=O)N[C@@H](CC(=O)O)C(=O)N[C@@H](CC2CCCCC2)C(N)=O)NC(=O)[C@H](CC(C)C)NC(=O)[C@H](CCC(N)=O)NC(=O)[C@H](Cc2c[nH]cn2)NC(=O)[C@H](Cc2c[nH]c3ccccc23)NC(=O)[C@H](Cc2c[nH]cn2)NC(=O)[C@H](Cc2c[nH]cn2)NC1=O` [compound 30] (Ac-F[R8]HHWHQL[S5]RRD[Cha]-NH2; staple 2-9), for which, on MDM2, the IC50 was in the range of 100 to 1000 nM and the Ki is 10 to 100 nM. For the same compound, on MDMX, the IC50 lay within 100 to 1000 nM and the Ki was 10 to 100 nM.
With `CCCC[C@H](NC(=O)[C@H](Cc1c[nH]cn1)NC(=O)[C@H](Cc1c[nH]cn1)NC(=O)[C@]1(C)CCCC=CCCCCCC[C@@](C)(NC(=O)[C@H](Cc2ccccc2)NC(C)=O)C(=O)N[C@@H](C)C(=O)N[C@@H](Cc2ccc(O)cc2)C(=O)N[C@@H](Cc2c[nH]c3ccccc23)C(=O)N[C@@H](C)C(=O)N[C@@H](CCC(N)=O)C(=O)N[C@@H](CC(C)C)C(=O)N1)C(=O)N[C@@H](CC(C)C)C(N)=O` [compound 38] (Ac-F[R8]AYWAQL[S5]HH[Nle]L-NH2; staple 2-9), on MDM2, the IC50 is above 1000 nM and the inhibitory constant (Ki) is 100 to 1000 nM. In addition, at MDMX, the IC50 lay within 100 to 1000 nM and the Ki was 10 to 100 nM.
Consider `CC(=O)N[C@@H](Cc1ccccc1)C(=O)N[C@]1(C)CCCCCCC=CCCC[C@@](C)(C(=O)N[C@@H](CCC(N)=O)C(=O)N[C@@H](Cc2c[nH]cn2)C(=O)N[C@H](C(=O)N[C@H](CC(C)C)C(N)=O)C2CCCCC2)NC(=O)[C@H](CC(C)C)NC(=O)[C@H](CCC(N)=O)NC(=O)[C@H](C(C)C)NC(=O)[C@H](Cc2c[nH]c3ccccc23)NC(=O)[C@H](Cc2ccc(O)cc2)NC(=O)[C@H](C)NC1=O` [compound 40] (Ac-F[R8]AYWVQL[S5]QH[Chg][dL]-NH2; staple 2-9), for which, on MDM2, the half-inhibitory concentration (IC50) lay within 100 to 1000 nM and the Ki was in the range of 100 to 1000 nM. Moreover, on MDMX, the IC50 was in the range of 100 to 1000 nM and the Ki is 10 to 100 nM.
With `CC(=O)N[C@@H](Cc1ccccc1)C(=O)N[C@]1(C)CCCCCCC=CCCC[C@@](C)(C(=O)N[C@@H](Cc2c[nH]cn2)C(=O)NC(C)(C)C(=O)N[C@@H](C)C(=O)N[C@H](C)C(N)=O)NC(=O)[C@H](CC(C)C)NC(=O)[C@H](CCC(N)=O)NC(=O)[C@H](Cc2ccc(O)cc2)NC(=O)[C@H](Cc2c[nH]c3ccccc23)NC(=O)[C@H](Cc2ccc(O)cc2)NC(=O)[C@H](C)NC1=O` [compound 42] (Ac-F[R8]AYWYQL[S5]H[Aib]A[dA]-NH2; staple 2-9), on MDM2, the IC50 lay within 100 to 1000 nM and the Ki fell in the range of 10 to 100 nM. Moreover, at MDMX, the IC50 fell in the range of 100 to 1000 nM and the inhibition constant (Ki) was 100 to 1000 nM.
In the case of `CC(=O)N[C@@H](CC(C)C)C(=O)N[C@H](C(=O)N[C@@H](Cc1ccccc1)C(=O)N[C@]1(C)CCCCCCC=CCCC[C@@](C)(C(=O)N[C@@H](Cc2c[nH]cn2)C(=O)NC(C)(C)C(=O)N[C@@H](CCC(C)C)C(=O)N[C@H](C(N)=O)C(C)C)NC(=O)[C@H](CC(C)C)NC(=O)[C@H](CCC(N)=O)NC(=O)[C@H](C)NC(=O)[C@H](Cc2c[nH]c3ccccc23)NC(=O)[C@H](Cc2ccc(O)cc2)NC(=O)[C@H](C)NC1=O)[C@@H](C)O` [compound 49] (Ac-LTF[R8]AYWAQL[S5]H[Aib][hLeu]V-NH2; staple 4-11), on MDM2, the IC50 fell in the range of 100 to 1000 nM and the Ki fell in the range of 10 to 100 nM. Moreover, on MDMX, the IC50 was in the range of 100 to 1000 nM and the Ki is 10 to 100 nM.
